Source: the METLIN SMRT retention time set (Domingo-Almenara et al. 2019)

Experiment: gradient 5% acetonitrile 3 min, to 50% in 2 min, to 85% in 15 min, held 3 min, 100 µL/min
Details: column: Zorbax Extend-C18 2.1 x 50 mm; eluents: water / acetonitrile, 0.1% formic acid
Summary of the method: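 Each retention time is based on an adduct peak selected computationally and verified by manual inspection. Measurements used HPLC–quadrupole time-of-flight mass spectrometry in positive and negative ionization mode on mixtures of ~100 pure standards. Chromatography ran on a Zorbax Extend-C18 column (2.1 × 50 mm, 1.8 μm) at 100 μL/min with water and acetonitrile, each containing 0.1% formic acid, and dead and dwell volumes of 40 μL and 900 μL.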

| Structure (SMILES) | RP-LC retention time |
| --- | --- |
| CCc1cc(=O)n(CC(=O)Nc2cccc(C(C)C)c2)c(N2CCOCC2)n1 | 829 s |
| Cc1ccccc1NC(=O)Cn1nc(N2CCCC(C)C2)c2ccccc2c1=O (stereo not given) | 1120 s |
| COc1cccc(-c2ccnc3nc(-c4ccccc4OC)nn23)c1 | 860 s |
| CCN1CCCn2cc(S(=O)(=O)N3CCCCCC3)cc2C1=O | 747 s |
| CCOCC(=O)N1CCc2c(c(C(=O)N3CCCC(C(=O)Nc4ccccc4)C3)nn2C)C1 (stereo not given) | 668 s |
| O=C(NCc1cccnc1-c1ccccc1)c1cccc(Br)c1 | 692 s |
| Cc1csc(-c2ccc(N3CCN(C(=O)c4cc5ccccc5[nH]4)CC3)nc2)n1 | 852 s |
| COc1ccc(OC)c(NC(=O)Cn2c(C)cc(-c3nnc(C4CC4)o3)c2C)c1 | 830 s |
| CC(=O)Nc1ccc(S(=O)(=O)N2CCN(c3cnn4c(C)nnc4c3)CC2)cc1 | 593 s |
| CC1=NS(=O)(=O)N(C)C=C1C(=O)OCc1noc(-c2ccccc2C)n1 | 987 s |
| Cc1ccc(N2CC(C(=O)N3CCC(NS(=O)(=O)c4ccccc4)CC3)CC2=O)cc1C (stereo not given) | 800 s |
| CCOC(=O)c1nc(N2CCN(Cc3ccc4c(c3)OCO4)CC2)c2ccccc2n1 | 739 s |
| CC1CC(C)CN(CCCNC(=O)Cn2c(=O)c3cccn3c3ccccc32)C1 (stereo not given) | 620 s |
| COC(=O)c1c(C)[nH]c(C(=O)N2CCCC(C(=O)NCCN3CCCCCC3)C2)c1C (stereo not given) | 610 s |
| CCOC(=O)c1c(C)oc2ncnc(N3CCN(c4ccccn4)CC3)c12 | 628 s |
| COC(=O)C1=CN(C2CC2)c2cc(N3CCC4(CC3)OCCO4)c(F)cc2S1(=O)=O | 806 s |
| COc1ccc(-c2nc3cnccn3c2Nc2ccc(C(N)=O)cc2)cc1OC | 593 s |
| O=C(Nc1ccc(OCC(=O)N2CCN(c3ccc(Cl)cc3)CC2)nc1)C1CC1 | 808 s |
| N#Cc1c(N)nc(N)nc1Nc1ccc(Br)cc1 | 777 s |
| CN(C)C(=O)CN1CCN(c2ccc(NC(=O)C(C)(C)C)c(C(=O)O)c2)CC1 | 595 s |
| COc1ccc(-c2noc(Cc3nnc(-c4cccc(F)c4)o3)n2)cc1OC | 914 s |
| COc1ccccc1NC(=O)c1cc(=O)n2c(nc3ccccc32)s1 | 964 s |
| COc1ccc(C(=O)N2CCCCC2c2nncn2C)cn1 (stereo not given) | 603 s |

| Structure (SMILES) | RP-LC retention time |
| --- | --- |
| COc1cc(OC)c(NC(=O)Cc2nnc(-c3cnccn3)o2)cc1Cl | 647 s |
| Cc1nc2cc3c(cc2n1CC(=O)Nc1ccc2c(c1)OCCCO2)OCCO3 | 618 s |
| COc1cc(NC(=O)CN2CCN(c3ccccn3)CC2)cc(OC)c1 | 587 s |
| COc1ccccc1C(=O)N1CCCC1c1cc(C)on1 (stereo not given) | 723 s |
| CCn1cc(CN2CCC(C(=O)NC3CCCc4ccccc43)CC2)c2cc(OC)ccc21 (stereo not given) | 760 s |
| Cc1cc(C)n(Cc2nc(-c3ccc(NC(=O)C4CCCCC4)cc3)oc2C)n1 | 1000 s |
| COc1ccc(CC(C)(O)CNC(=O)C2CC2)cc1 (stereo not given) | 631 s |
| CCN1CCN(CCCNC(=O)C2CCCN(C(=O)c3[nH]c(C)c(C(=O)OC(C)C)c3C)C2)CC1 (stereo not given) | 579 s |
| Cc1nc(-c2cnccn2)n(CC(=O)Nc2ccc3c(c2)OCCO3)c(=O)c1C | 688 s |
| Cc1nc2cccnc2n1C1CCN(C(=O)Nc2ccccc2F)CC1 | 605 s |
| Cc1cc(C(=O)Nc2cnc(N3CCCCC3)nc2)no1 | 845 s |
| Cc1noc(C2(NC(=O)c3cccc(F)c3)CCCCC2)n1 | 860 s |
| COc1cccc(-c2nc(C3CCN(S(=O)(=O)c4ccc(C)cc4)CC3)no2)c1 | 1150 s |
| CC(C)c1noc(-c2cc(=O)n(CC(=O)NCc3ccccc3)c3ccccc23)n1 | 940 s |
| O=C(Cc1cccs1)NCCOc1ccc(F)cc1 | 766 s |
| CC(C)c1ccc(S(=O)(=O)N2CCc3c(c(CN4CCCC4)nn3C)C2)cc1 | 721 s |
| CCNc1nc(C)cc(N2CCN(S(=O)(=O)c3ccc(C(F)(F)F)cc3)CC2)n1 | 754 s |
| O=c1c2cc([N+](=O)[O-])ccc2nc(CN2CCN(c3ccccn3)CC2)n1-c1ccccc1F | 670 s |
| COc1ccc(-c2ncc(C(=O)Nc3ccc(OC)c(OC)c3)c(-c3ccncc3)n2)cc1 | 769 s |
| COc1cc(CN2C[C@@H]3C(=O)N(Cc4ccc5c(c4)OCO5)C(=O)[C@@H]3C2)cc(OC)c1 | 741 s |
| Cc1ccc(C)c(NC(=O)Cn2nc3cc(C)nc(N4CCCC4)n3c2=O)c1 | 785 s |
| Cc1ccccc1-c1nnc(COc2ccc(NC(=O)c3cncc(Br)c3)cc2)o1 | 968 s |
| CCCOc1cn(-c2ccc(F)cc2)nc1C(=O)N1CCC(C(=O)OCC)CC1 | 930 s |

| Structure (SMILES) | RP-LC retention time |
| --- | --- |
| COc1ccc(-c2nnc(-c3cccc(S(=O)(=O)N4CCOCC4)c3)o2)cc1 | 868 s |
| CC(C)CCN1CC(=O)N(Cc2ccc(N3CCOCC3)cc2)C(c2cccs2)C1=O (stereo not given) | 836 s |
| COc1ccc(NC(=O)N2CCCC(C)(C(=O)NCc3cccc(OC)c3)C2)cc1 (stereo not given) | 792 s |
| O=C(N[C@H]1C[C@@H]2C[C@H]1N(C(=O)NCCc1ccccc1)C2)c1ccccc1 | 740 s |
| Cc1cc(N2CCC(NC(=O)Nc3cccc(Cl)c3F)C2=O)ccc1F (stereo not given) | 945 s |
| COc1cccc(CNC(=O)Cc2csc3nc(-c4ccc(OC)c(OC)c4)cn23)c1 | 698 s |
| CCN1C(=O)c2cccnc2Sc2cc(NC(=O)Cc3ccccc3F)ccc21 | 826 s |
| Cc1cc(N2CCN(S(=O)(=O)c3cc(F)ccc3C)CC2)nc(N2CCCCC2)n1 | 785 s |
| Cc1noc(-c2cc(=O)n(CC(=O)Nc3ccc4c(c3)OCCO4)c3ccccc23)n1 | 803 s |
| CCC1CCCCN1CCCNC(=O)CCc1cc2ccccc2[nH]c1=O (stereo not given) | 598 s |
| O=C(Cn1nc2n(c(=O)c1=O)CCN2c1ccccc1)Nc1ccc(OC(F)(F)F)cc1 | 808 s |
| O=c1ccc(-c2ccc(F)cc2)nn1CCc1nc(-c2ccc3c(c2)OCO3)no1 | 933 s |
| O=S(=O)(c1cc(-c2nnc(C3CC3)o2)co1)N1CCN(c2ccccc2)CC1 | 960 s |
| CCc1cc(C(=O)Nc2ccc(C)cc2F)nc2ccnn12 | 1140 s |
| Cc1cc(Cl)ccc1NC(=O)N1C[C@@H]2C[C@H](NS(=O)(=O)c3ccccc3)[C@H]1C2 | 922 s |
| CCc1ccc(NC(=O)Cn2nc3c(Oc4cc(C)cc(C)c4)nccn3c2=O)cc1 | 943 s |
| CS(=O)(=O)c1ccccc1C(=O)Nc1c2c(nn1-c1nc3ccccc3s1)CCC2 | 1060 s |
| COCCn1c(Cc2cccn2C)nnc1SCC(=O)N1CCCc2ccccc21 | 809 s |
| Cn1cc(C(=O)NCc2cccs2)c2cccnc21 | 691 s |
| O=C1NCCc2c1[nH]c1ccccc21 | 750 s |
| O=C(c1ccco1)N1CCc2cc(-c3csc(C4CC4)n3)ccc21 | 1070 s |
| Cc1ccc(CNC(=O)CC2CCOCC2)o1 | 663 s |
| Cc1cc(C)cc(NC(=O)C2CCN(S(=O)(=O)c3cc(-c4noc(C5CC5)n4)cs3)CC2)c1 | 1020 s |

| Structure (SMILES) | RP-LC retention time |
| --- | --- |
| Cc1noc(C2(NC(=O)c3ccc(C(F)(F)F)cc3)CCCCC2)n1 | 711 s |
| CCn1c(CCNC(=O)Cc2ccc(Cl)cc2)nc2cccnc21 | 639 s |
| Cc1ccc(-n2cc3c(N4CCCC(C(=O)NCc5ccc(C(C)C)cc5)C4)ncnc3n2)cc1 (stereo not given) | 836 s |
| CSc1ncc(Cl)c(C(=O)NCc2ccco2)n1 | 753 s |
| CC(C)c1ccc(NC(=O)c2cn(C)nc2S(=O)(=O)N2CCSCC2)cc1 | 944 s |
| CN(C)CC1(O)CCC2(CCN(C(=O)CCC3CCCC3)CC2)CC1 | 639 s |
| CC(C)CN1Cc2ccccc2-n2ccnc2C12CCN(C(=O)C1CC1)CC2 | 648 s |
| CSc1ncc(C(=O)NC2CC2)c(N)n1 | 543 s |
| CC(C)Cc1noc(C2(F)CCN(S(=O)(=O)c3cccc(Cl)c3)CC2)n1 | 1190 s |
| Cn1c(NC(=O)C2CC2)cc(=O)n(C)c1=O | 605 s |
| CC(=O)N1CCc2cc(N3CC(C(=O)NCc4cc(C)ccc4C)CC3=O)ccc21 (stereo not given) | 742 s |
| Cn1nnc2c(N3CCN(C(=O)Nc4ccccc4C#N)CC3)ncnc21 | 626 s |
| CCN1C(=O)C2(CCN(C(=O)c3c(C)noc3C)CC2)c2ccccc21 | 785 s |
| CCOc1ccc(Nc2c(-c3cccc(O)c3)nc3cnccn23)cc1 | 746 s |
| Cc1nc(-c2ccc(NC(=O)c3ccc([N+](=O)[O-])cc3)cc2)cs1 | 855 s |
| Cc1cc(C)n(CCC(=O)NC2CCN(c3ccc(=O)[nH]n3)C2)n1 (stereo not given) | 579 s |
| COCCCNC(=O)C1CCCN(S(=O)(=O)c2ccc(OC)c(C)c2)C1 (stereo not given) | 768 s |
| CCOC(=O)c1ccc(Nc2cc(C(=O)N3CCCCC3)nc3cc(OC)c(OC)cc23)cc1 | 737 s |
| CC1Oc2ccc(-c3csc(NS(C)(=O)=O)n3)cc2NC1=O (stereo not given) | 609 s |
| CCC(C)NS(=O)(=O)c1cc(-c2cc(C(F)(F)F)on2)sc1C (stereo not given) | 1140 s |
| CCN(CC)C(=O)c1ccc2c(c1)nnn2CCNC(=O)Nc1ccc(Br)c(C)c1 | 785 s |
